Results published in US8088819B2, “Derivatives of substituted 3-phenyl-1-(phenylthienyl)propan-1-ones and of 3-phenyl-1-(phenylfuranyl) propan-1-ones, preparation and use” (priority 2006, dated 2012).

How the values were obtained:
[1] = test system: db/db mouse; assay: Plasma triglycerides and insulinemia in the db/db mouse; assay type: in vivo; conditions: 50 mpk oral, 28 days
Description: The effect of the compounds according to the invention is evaluated in vivo in the db/db mouse by measuring the plasma triglycerides and insulinemia after 28 days of treatment with compound 2 by the oral route. These levels are compared with those obtained with control animals (not treated with the compound according to the invention). The measured difference provides evidence of the antilipemic effect and effect on insulin resistance of the compound according to the invention.
Female db/db mice were kept under a cycle of light and darkness of 12/12 hours at a constant temperature of 20±3° C. After acclimation for one week, the mice were weighed and put in groups of 8 animals selected so that the distribution of their body weight and of their plasma lipid levels, determined for the first time before the experiment, are uniform. The test compounds were suspended in carboxymethylcellulose (Sigma C4888) and administered by intragastric force feeding, at a rate of once per day for 28 days at the chosen dose. The animals had free access to water and to food (standard diet). The food intake and the weight gain are recorded throughout the experiment. […]
The plasma concentrations of triglycerides were measured by enzyme assays (bioMérieux-Lyon-France) following the supplier's recommendations. […]

[2] = test system: target genes of the PPARs; assay: Expression of target genes of the PPARs in liver and skeletal muscle of the E2/E2 mouse, quantitative RT-PCR; assay type: in vivo; conditions: 50 mpk, 13 days
Text: The PPARα agonistic properties of the molecules according to the invention previously measured in vitro must be reflected at the hepatic level in a modulation of the expression of the target genes directly under the control of the PPARα receptor. The genes that were investigated in this experiment are the genes coding for PDK4 (pyruvate dehydrogenase kinase isoform 4, enzyme of carbohydrate metabolism), for AcoX1 (the AcoX1 present in the mouse corresponds to the gene of ACO in humans (acyl co-enzyme A oxidase, a key enzyme in the mechanism of the β-oxidation of fatty acids)) and for Apo CIII (an apolipoprotein involved in lipid metabolism).
The PPARδ agonistic properties of the molecules according to the invention previously measured in vitro should also be reflected, at the level of the skeletal muscle, in overexpression of the target genes directly under the control of the PPARδ receptor. The genes that were investigated in this experiment are the genes coding for PDK4 (pyruvate dehydrogenase kinase isoform 4, enzyme of carbohydrate metabolism) and UCP2 (uncoupling protein 2, mitochondrial transporter involved in thermoregulation).
Apo E2/E2 transgenic mice were kept under a cycle of light and darkness of 12/12 hours at a constant temperature of 20±3° C. After acclimation for one week, the mice were weighed and put into groups of 6 animals selected so that the distribution of their body weights and of their plasma lipid levels determined for the first time before the experiment are uniform. The test compounds were suspended in carboxymethylcellulose (Sigma C4888) and administered by intragastric force feeding, at a rate of once per day for 13 days at the chosen dose. The animals had free access to water and to food (standard diet). At the end of the experiment, the animals were anesthetized after fasting for 4 hours, a blood sample was taken using anticoagulant (EDTA), then the mice were weighed and euthanased. The plasma was separated by centrifugation at 3000 rev/min for 20 minutes, and the samples were stored at +4° C.
Samples of liver and of skeletal muscle tissue were taken and frozen immediately in liquid nitrogen and then stored at −80° C. for later analyses.
The total RNA was extracted from fragments of liver using the NucleoSpin® 96 RNA kit (Macherey Nagel, Hoerdt, France) following the manufacturer's instructions. […]
1 μg of total RNA (quantified by spectrophotometry) was then reverse-transcribed to complementary DNA by reaction for 1 hour at 37° C. in a total volume of 30 μl containing buffer 1× (Invitrogen), 1.5 mM of DTT, 0.18 mM of dNTPs (Promega), 200 ng of pdN6 (Amersham), 30 U of RNase inhibitor (Promega) and 1 μl of MMLV-RT (Invitrogen).
The quantitative PCR experiments were carried out using the MyiQ Single-Color Real-Time PCR Detection System (Biorad, Marnes-la-Coquette, France) and were performed using the iQ SYBR Green Supermix kit following the supplier's recommendations, in 96-well plates, on 5 μl of diluted reverse transcription reaction mixture with a hybridization temperature of 60° C. […]
In both cases (hepatic tissue and skeletal muscle tissue), the amount of fluorescence emitted is directly proportional to the amount of complementary DNA present at the start of the reaction and amplified during PCR. […] The relative expression levels of each target are thus determined using the efficacy curves obtained with the points in the range. […]

With CC(C)(Oc1ccc(CCC(=O)c2ccc(-c3ccc(C(F)(F)F)cc3)s2)c(Cl)c1Cl)C(=O)O [Compound 2, 2-(2,3-dichloro-4-(3-oxo-3-(5-(4-(trifluoromethyl)phenyl)thien-2-yl)propyl)phenoxy)-2-methylpropanoic acid] the “insulinemia (plasma levels of insulin)” value [1] was “lowered significantly”, the plasma triglyceride level [1] was “lowered significantly” and the “hepatic expression of the gene coding for AcoX1” value ([2]; liver) was “significant increase”. The “hepatic expression of the gene coding for ApoCIII” value ([2]; liver) was “decrease”, the “hepatic expression of the gene coding for PDK4” value ([2]; liver) was “significant increase” and the “expression of the gene coding for PDK4 in the skeletal muscle” value ([2]; skeletal muscle) was “significant increase”. For the same compound, the “expression of the gene coding for UCP2 in the skeletal muscle” value ([2]; skeletal muscle) was “significant increase”.
